Key:
[1] = target: Sphingosine 1-phosphate receptor 1 (Homo sapiens, UniProt P21453); test: Agonist activity at human S1P1R expressed in RH7777 membranes assessed as [35S]GTPgammaS binding after 30 mins; type: functional, cell membranes
[2] = target: Sphingosine 1-phosphate receptor 3 (Homo sapiens, UniProt Q99500); test: Agonist activity at human S1P3R expressed in RBL membranes assessed as [35S]GTPgammaS binding after 30 mins; type: functional, cell membranes
Cytochrome P450 1A2 = target: T1, Cytochrome P450 1A2 (Homo sapiens, UniProt P05177); test: Inhibition of CYP1A2 (unknown origin); type: ADME
T1 sequence (P05177 whole entry): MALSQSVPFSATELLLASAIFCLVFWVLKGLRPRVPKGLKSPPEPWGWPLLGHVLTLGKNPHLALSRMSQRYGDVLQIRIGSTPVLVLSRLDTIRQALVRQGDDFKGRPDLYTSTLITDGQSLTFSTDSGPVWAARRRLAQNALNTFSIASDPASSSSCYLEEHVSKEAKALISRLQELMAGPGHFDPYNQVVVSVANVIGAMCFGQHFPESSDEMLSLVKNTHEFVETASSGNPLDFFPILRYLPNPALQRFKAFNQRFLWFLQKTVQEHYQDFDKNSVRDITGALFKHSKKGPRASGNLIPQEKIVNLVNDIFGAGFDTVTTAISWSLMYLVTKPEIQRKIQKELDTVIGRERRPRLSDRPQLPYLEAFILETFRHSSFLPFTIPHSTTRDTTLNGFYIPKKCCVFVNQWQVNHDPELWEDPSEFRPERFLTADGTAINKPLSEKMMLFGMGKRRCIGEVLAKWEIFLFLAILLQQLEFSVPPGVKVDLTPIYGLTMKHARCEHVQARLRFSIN

Cytochrome P450 2C9 = Cytochrome P450 2C9 (Homo sapiens, UniProt P11712); test: Inhibition of CYP2C9 (unknown origin); type: ADME
Cytochrome P450 2C9, sequence (P11712 whole entry): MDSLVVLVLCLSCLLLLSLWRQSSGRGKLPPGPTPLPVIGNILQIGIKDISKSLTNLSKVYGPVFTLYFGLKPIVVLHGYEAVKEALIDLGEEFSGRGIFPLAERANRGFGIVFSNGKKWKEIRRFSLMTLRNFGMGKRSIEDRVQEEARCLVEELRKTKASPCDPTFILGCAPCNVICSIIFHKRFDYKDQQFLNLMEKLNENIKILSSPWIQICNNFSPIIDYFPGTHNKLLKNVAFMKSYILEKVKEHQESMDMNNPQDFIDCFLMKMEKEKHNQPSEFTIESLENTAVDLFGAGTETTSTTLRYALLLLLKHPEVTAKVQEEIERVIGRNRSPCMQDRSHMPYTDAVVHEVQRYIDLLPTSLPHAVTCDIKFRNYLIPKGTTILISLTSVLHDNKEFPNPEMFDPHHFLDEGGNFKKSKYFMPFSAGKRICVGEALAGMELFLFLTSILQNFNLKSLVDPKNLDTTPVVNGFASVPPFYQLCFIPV

Cytochrome P450 2C19 = Cytochrome P450 2C19 (Homo sapiens, UniProt P33261); test: Inhibition of CYP2C19 (unknown origin); type: ADME
Cytochrome P450 2C19, sequence (P33261 whole entry): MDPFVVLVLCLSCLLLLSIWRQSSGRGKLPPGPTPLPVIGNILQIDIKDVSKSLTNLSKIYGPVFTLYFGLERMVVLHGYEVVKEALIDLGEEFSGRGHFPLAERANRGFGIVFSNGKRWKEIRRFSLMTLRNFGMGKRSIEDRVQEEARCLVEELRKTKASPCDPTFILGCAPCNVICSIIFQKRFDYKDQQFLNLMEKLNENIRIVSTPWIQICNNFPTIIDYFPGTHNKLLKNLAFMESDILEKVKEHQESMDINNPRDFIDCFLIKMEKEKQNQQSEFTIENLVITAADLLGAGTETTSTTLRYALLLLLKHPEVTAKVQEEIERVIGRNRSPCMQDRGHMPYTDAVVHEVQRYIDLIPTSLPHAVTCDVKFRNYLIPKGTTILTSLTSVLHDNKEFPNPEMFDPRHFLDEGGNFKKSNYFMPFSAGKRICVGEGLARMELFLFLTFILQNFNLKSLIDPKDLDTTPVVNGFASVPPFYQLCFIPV

Cytochrome P450 2D6 = Cytochrome P450 2D6 (Homo sapiens, UniProt P10635); test: Inhibition of CYP2D6 (unknown origin); type: ADME
Cytochrome P450 2D6, sequence (P10635 whole entry): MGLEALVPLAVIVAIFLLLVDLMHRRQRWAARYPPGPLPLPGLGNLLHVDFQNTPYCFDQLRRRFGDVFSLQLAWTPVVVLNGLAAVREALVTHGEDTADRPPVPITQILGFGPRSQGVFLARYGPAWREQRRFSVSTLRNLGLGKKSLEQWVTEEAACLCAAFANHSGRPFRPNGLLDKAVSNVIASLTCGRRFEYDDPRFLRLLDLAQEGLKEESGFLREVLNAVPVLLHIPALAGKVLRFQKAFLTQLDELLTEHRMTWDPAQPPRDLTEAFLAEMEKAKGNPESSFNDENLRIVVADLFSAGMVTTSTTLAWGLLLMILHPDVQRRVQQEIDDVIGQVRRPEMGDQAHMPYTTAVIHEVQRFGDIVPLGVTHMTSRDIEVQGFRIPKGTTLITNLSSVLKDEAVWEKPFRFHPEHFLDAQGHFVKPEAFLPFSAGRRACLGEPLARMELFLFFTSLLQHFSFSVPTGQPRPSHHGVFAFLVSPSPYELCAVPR

[3] = Inhibition of CYP3A4VG (unknown origin); type: ADME, Homo sapiens
[4] = Inhibition of CYP3A4VR (unknown origin); type: ADME, Homo sapiens
[5] = Fraction unbound in rat blood; type: ADME, tissue-based
[6] = Fraction unbound in dog blood; type: ADME, tissue-based, Canis lupus familiaris
[7] = Fraction unbound in human blood; type: ADME, tissue-based
Hepatocyte = test: Intrinsic clearance in rat hepatocyte; type: ADME, cell-based; details: hepatocytes
[8] = Intrinsic clearance in dog hepatocyte; type: ADME, cell-based, Canis lupus familiaris; details: hepatocytes
Rattus norvegicus [9] = test: Reduction in lymphocyte level in po dosed male Lewis rat; type: functional, organism-based
[10] = Clearance in CD rat at 1 mg/kg, iv or 3 mg/kg, po using DMSO/10%(w/v) Kleptose, 0.9% saline(aq) (2%/98%); type: ADME, organism-based; details: in vivo
[11] = Volume of distribution at steady state in CD rat at 1 mg/kg, iv or 3 mg/kg, po using DMSO/10%(w/v) Kleptose, 0.9% saline(aq) (2%/98%); type: ADME, organism-based; details: in vivo, read-out: Vdss
[12] = Half life in CD rat at 1 mg/kg, iv or 3 mg/kg, po using DMSO/10%(w/v) Kleptose, 0.9% saline(aq) (2%/98%); type: ADME, organism-based; details: in vivo
[13] = (§1) Oral bioavailability in CD rat at 3 mg/kg using Methylcellulose(aq), 1% (w/v) suspension; type: ADME, organism-based; details: CD, in vivo
[14] = (§2) Volume of distribution at steady state in Beagle dog at 1 mg/kg, iv or 2 mg/kg, po using DMSO/10%(w/v) Kleptose, 0.9% saline(aq) (2%/98%); type: ADME, organism-based, Canis lupus familiaris; details: beagle, in vivo, read-out: Vdss
Canis familiaris [15] = test: Half life in Beagle dog at 1 mg/kg, iv or 2 mg/kg, po using DMSO/10%(w/v) Kleptose, 0.9% saline(aq) (2%/98%); type: ADME, organism-based, Canis lupus familiaris; details: in vivo
[16] = (§3) Oral bioavailability in Beagle dog at 2 mg/kg using Methylcellulose(aq), 1% (w/v) suspension; type: ADME, organism-based, Canis lupus familiaris; details: beagle, in vivo
[17] = Dissociation constant, pKa of the compound; type: physicochemical
Rattus norvegicus [18] = test: Reduction of lymphocyte count in rat at 1 mg/kg, po measured at 2 to 12 hrs relative to control; type: functional
Rattus norvegicus [19] = test: as §1; type: ADME, organism-based; details: in vivo
Canis familiaris [20] = test: as §2; type: ADME, organism-based, Canis lupus familiaris; details: in vivo
Canis familiaris [21] = test: as §3; type: ADME, organism-based, Canis lupus familiaris; details: in vivo
[22] = Clearance in CD rat at 1 mg/kg, iv or 3 mg/kg, po using DMSO/10%(w/v) Kleptose, 0.9% saline(aq) (5%/95%); type: ADME, organism-based; details: in vivo
[23] = Volume of distribution at steady state in CD rat at 1 mg/kg, iv or 3 mg/kg, po using DMSO/10%(w/v) Kleptose, 0.9% saline(aq) (5%/95%); type: ADME, organism-based; details: in vivo, read-out: Vdss
[24] = Half life in CD rat at 1 mg/kg, iv or 3 mg/kg, po using DMSO/10%(w/v) Kleptose, 0.9% saline(aq) (5%/95%); type: ADME, organism-based; details: in vivo
Mus musculus = test: Volume of distribution at steady state in po dosed C57BL/6 mouse at 1 mg/kg, iv using DMSO/1% methylcellulose 1:99 (w/v); type: ADME, organism-based; set-up: dose 1 mg/kg, route oral; details: in vivo
[25] = Half life in po dosed C57BL/6 mouse at 1 mg/kg, iv using DMSO/1% methylcellulose 1:99 (w/v); type: ADME, organism-based; set-up: dose 1 mg/kg, route oral; details: in vivo
[26] = Oral bioavailability in C57BL/6 mouse at 3 mg/kg using DMSO/1% methylcellulose 1:99 (w/v); type: ADME, organism-based; details: in vivo

Sphingosine 1-phosphate receptor 1, sequence (P21453 whole entry): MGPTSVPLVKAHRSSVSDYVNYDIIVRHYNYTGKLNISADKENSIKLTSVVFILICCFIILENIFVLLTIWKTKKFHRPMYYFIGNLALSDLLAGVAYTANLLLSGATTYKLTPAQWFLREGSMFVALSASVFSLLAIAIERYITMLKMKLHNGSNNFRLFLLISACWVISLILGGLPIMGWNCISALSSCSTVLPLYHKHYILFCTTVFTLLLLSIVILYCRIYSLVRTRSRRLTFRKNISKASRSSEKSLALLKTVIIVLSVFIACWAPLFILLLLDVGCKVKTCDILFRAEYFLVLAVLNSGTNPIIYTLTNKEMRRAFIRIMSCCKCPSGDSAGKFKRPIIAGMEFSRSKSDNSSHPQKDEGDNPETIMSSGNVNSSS
Sphingosine 1-phosphate receptor 3, sequence (Q99500 whole entry): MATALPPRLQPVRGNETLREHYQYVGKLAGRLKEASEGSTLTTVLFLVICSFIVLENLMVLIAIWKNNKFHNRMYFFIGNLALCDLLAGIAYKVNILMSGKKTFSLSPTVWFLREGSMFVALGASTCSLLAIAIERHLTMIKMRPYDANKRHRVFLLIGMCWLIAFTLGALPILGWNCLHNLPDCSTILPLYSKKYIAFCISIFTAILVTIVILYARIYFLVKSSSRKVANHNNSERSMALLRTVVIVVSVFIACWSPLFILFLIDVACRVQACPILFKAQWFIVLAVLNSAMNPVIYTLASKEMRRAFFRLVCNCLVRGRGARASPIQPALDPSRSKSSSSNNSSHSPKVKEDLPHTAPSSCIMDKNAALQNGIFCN

SMILES: CC(C)Oc1ncc(-c2nc(-c3cccc4c3OCCNC4CCCC(=O)O)no2)cc1Cl (stereo in doubt; 31b)
- EC50 [1]: 0.0501 µM
- EC50 [2]: 10 µM
- IC50 (Cytochrome P450 1A2): > 50 µM
- IC50 (Cytochrome P450 2C9): > 50 µM
- IC50 (Cytochrome P450 2C19): > 50 µM
- IC50 (Cytochrome P450 2D6): > 50 µM
- IC50 [3]: > 50 µM
- IC50 [4]: > 50 µM
- fraction unbound [5]: 0.004
- fraction unbound [6]: 0.015
- fraction unbound [7]: 0.016
- CLH (Hepatocyte): < 0.9 mL/min/g
- CLH [8]: 1.7 mL/min/g
- IC50 (Rattus norvegicus [9]; Rattus norvegicus, Lewis): 0.099 µM
- clearance [10]: 0.71 mL/min/kg
- Vd [11]: 0.4 L/kg
- half-life [12]: 6.6 h
- bioavailability [13]: 78%
- Vd [14]: 0.9 L/kg
- t1/2 (Canis familiaris [15]): 1.8 h
- bioavailability [16]: 67%
- pKa [17]: 8.09
- inhibition in vivo at 1 mg/kg (Rattus norvegicus [18]): > 80%

SMILES: CC(C)Oc1ncc(-c2nc(-c3cccc4c3OCCNC4CCCC(=O)O)no2)cc1Cl (single isomer, unassigned; enantiomer 1)
- EC50 [1]: 0.0398 µM
- EC50 [2]: 20 µM
- IC50 (Cytochrome P450 1A2): > 50 µM
- IC50 (Cytochrome P450 2C9): > 50 µM
- IC50 (Cytochrome P450 2C19): > 50 µM
- IC50 (Cytochrome P450 2D6): > 50 µM
- Fu [6]: 0.01
- Fu [7]: 0.014
- CLH [8]: 4 mL/min/g
- IC50 (Rattus norvegicus [9]): 0.091 µM
- F (Rattus norvegicus [19]): 87%
- Vdss (Canis familiaris [20]): 1.5 L/kg
- t1/2 (Canis familiaris [15]): 0.84 h
- F (Canis familiaris [21]): 50%
- clearance [22]: 1.03 mL/min/kg
- Vd [23]: 0.6 L/kg
- half-life [24]: 6.4 h

SMILES: CC(C)Oc1ccc(-c2nc(-c3ccc4c(c3)CCNCC4)no2)cc1Cl
- EC50 [1]: 0.158 µM
- EC50 [2]: > 31.6 µM
- Vdss (Mus musculus): 7.6 L/kg
- half-life [25]: 9.5 h
- bioavailability [26]: 59%

Source: ChEMBL document CHEMBL3352346, “Optimization of sphingosine-1-phosphate-1 receptor agonists: effects of acidic, basic, and zwitterionic chemotypes on pharmacokinetic and pharmacodynamic profiles” (J Med Chem, 2014)
